US7700624B2, “3-aminocyclopentanecrboxamides as modulators of chemokine receptors” (Incyte Corporation, priority 2005, dated 2010)

target: T1, CCR2 (Homo sapiens, UniProt P41597); test: CCR2 binding assay: 125I-labeled MCP-1 binding to human PBMCs; conditions: inhibition of specific binding of 0.1 to 0.2 nM 125I-labeled MCP-1 to human PBMCs, 30 min at room temperature
T1 construct: Peripheral Blood Mononuclear Cells (PBMCs) prepared from normal human whole blood via density gradient centrifugation; endogenous in cells; host or cells: human PBMCs from normal whole blood
T1 sequence (P41597 1-360 isoform P41597-2): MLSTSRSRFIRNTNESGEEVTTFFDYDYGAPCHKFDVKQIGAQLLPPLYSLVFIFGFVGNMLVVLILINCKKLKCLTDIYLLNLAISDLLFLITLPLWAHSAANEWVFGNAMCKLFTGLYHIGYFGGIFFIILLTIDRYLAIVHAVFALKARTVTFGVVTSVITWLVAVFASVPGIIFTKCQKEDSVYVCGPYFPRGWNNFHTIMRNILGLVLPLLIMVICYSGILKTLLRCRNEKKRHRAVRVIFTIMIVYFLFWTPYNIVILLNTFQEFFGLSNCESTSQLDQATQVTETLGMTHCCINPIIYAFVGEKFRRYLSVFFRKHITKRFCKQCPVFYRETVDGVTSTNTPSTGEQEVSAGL
Source text: The CCR2 antagonist activity of compounds of the invention can be reported as the inhibitor concentration required for 50% inhibition (IC50 values) of specific binding in receptor binding assays using ^125I-labeled MCP-1, as ligand, and Peripheral Blood Mononuclear Cells (PBMCs) prepared from normal human whole blood via density gradient centrifugation. Specific binding is preferably defined as the total binding (e.g., total cpm on filters) minus the non-specific binding. Non-specific binding is defined as the amount of cpm still detected in the presence of excess unlabeled competitor (e.g., MCP-1).
Human PBMCs are used to test compounds of the invention in a binding assay. For example, 200,000 to 500,000 cells are incubated with 0.1 to 0.2 nM ^125I-labeled MCP-1, with or without unlabeled competitor (10 nM MCP-1) or various concentrations of compounds to be tested. ^125I-labeled MCP-1, are prepared by suitable methods or purchased from commercial vendors (Perkin Elmer, Boston Mass.). The binding reactions are performed in 50 to 250 μL of a binding buffer consisting of […] pH 7.2, and 0.1% BSA (bovine serum albumin), for 30 min at room temperature. The binding reactions are terminated by harvesting the membranes by rapid filtration through glass fiber filters (Perkin Elmer) which is presoaked in 0.3% polyethyleneimine or Phosphate Buffered Saline (PBS). The filters were rinsed with approximately 600 μL of binding buffer containing 0.5 M NaCl or PBS, then dried, and the amount of bound radioactivity is determined by counting on a Gamma Counter (Perkin Elmer).

Structure (SMILES)	IC50 [nM]
CC(C)[C@]1(C(=O)N2CCN(c3cc(C(F)(F)F)ccn3)CC2)CC[C@@H](NC2CCCN(c3ncccn3)C2)C1 (mixture of isomers) [Example 11, N-[(1R,3S)-3-isopropyl-3-({4-[4-(trifluoromethyl)pyridin-2-yl]piperazin-1-yl}carbonyl)cyclopentyl]-1-pyrimidin-2-ylpiperidin-3-amine]	420
CC#CCN1CCC(N[C@@H]2CC[C@@](C(=O)N3CCN(c4cc(C(F)(F)F)ccn4)CC3)(C(C)C)C2)CCC1=O (mixture of isomers) [Example 12, 1-but-2-yn-1-yl-5-{[(1R,3S)-3-isopropyl-3-({4-[4-(trifluoromethyl)pyridin-2-yl]piperazin-1-yl}carbonyl)cyclopentyl]amino}azepan-2-one]	660
CC(C)[C@]1(C(=O)N2CCN(c3cc(C(F)(F)F)ccn3)CC2)CC[C@@H](NC2CCC(O)(c3ccc(-c4ncccn4)cn3)CC2)C1 (some centres unmarked) [Example 1, 4-{[(1R3S)-3-isopropyl-3-({4-[4-(trifluoromethyl)pyridin-2-yl]piperazin-1-yl}carbonyl)cyclopentyl]amino}-1-(5-pyrimidin-2-ylpyridin-2-yl)cyclohexanol]	19.8
CC(C)[C@]1(C(=O)N2CCN(c3cc(C(F)(F)F)ccn3)CC2)CC[C@@H](NCc2ccc(Cl)s2)C1 [Example 5, (1R,3S)-N-[(5-chloro-2-thienyl)methyl]-3-isopropyl-3-({4-[4-(trifluoromethyl)pyridin-2-yl]piperazin-1-yl}carbonyl)cyclopentanamine]	616
CCn1cc(CN[C@@H]2CC[C@@](C(=O)N3CCN(c4cc(C(F)(F)F)ccn4)CC3)(C(C)C)C2)cn1 [Example 7, (1R,3S)-N-[(1-ethyl-1H-pyrazol-4-yl)methyl]-3-isopropyl-3-({4-[4-(trifluoromethyl)pyridin-2-yl]piperazin-1-yl}carbonyl)cyclopentanamine]	617
CC(C)[C@]1(C(=O)N2CCN(c3cc(C(F)(F)F)ccn3)CC2)CC[C@@H](NCc2cnc3c(c2)NC(=O)CO3)C1 [Example 9, 7-({[(1R,3S)-3-isopropyl-3-({4-[4-(trifluoromethyl)pyridin-2-yl]piperazin-1-yl}carbonyl)cyclopentyl]amino}methyl)-1H-pyrido[23-b][14]oxazin-2(3H)-one]	338
COc1ccc(CN[C@@H]2CC[C@@](C(=O)N3CCN(c4cc(C(F)(F)F)ccn4)CC3)(C(C)C)C2)c(OC)c1 [Example 10, (1R,3S)-N-(24-dimethoxybenzyl)-3-isopropyl-3-({4-[4-(trifluoromethyl)pyridin-2-yl]piperazin-1-yl}carbonyl)cyclopentanamine]	519
CC(C)NC(=O)CCC1CCCC1N[C@@H]1CC[C@@](C(=O)N2CCN(c3cc(C(F)(F)F)ccn3)CC2)(C(C)C)C1 (stereo partly drawn) [Example 13, N-isopropyl-3-(2-{[(1R,3S)-3-isopropyl-3-({4-[4-(trifluoromethyl)pyridin-2-yl]piperazin-1-yl}carbonyl)cyclopentyl]amino}cyclopentyl)propanamide]	273
CC(C)[C@]1(C(=O)N2CCN(c3cc(C(F)(F)F)ccn3)CC2)CC[C@@H](NC2Cc3ccccc3C2)C1 [Example 14, N-[(1R,3S)-3-isopropyl-3-({4-[4-(trifluoromethyl)pyridin-2-yl]piperazin-1-yl}carbonyl)cyclopentyl]indan-2-amine]	74.8
CC(C)[C@]1(C(=O)N2CCN(c3cc(C(F)(F)F)ccn3)CC2)CC[C@@H](NC2CCS(=O)(=O)CC2)C1 [Example 15, N-[(1R-3S)-3-isopropyl-3-({4-[4-(trifluoromethyl)pyridin-2-yl]piperazin-1-yl}carbonyl)cyclopentyl]tetrahydro-2H-thiopyran-4-amine 11-dioxide]	541
CC(C)[C@]1(C(=O)N2CCN(c3cc(C(F)(F)F)ccn3)CC2)CC[C@@H](NC2CCCC2)C1 [Example 16, (1R,3S)-N-cyclopentyl-3-isopropyl-3-({4-[4-(trifluoromethyl)pyridin-2-yl]piperazin-1-yl}carbonyl)cyclopentanamine]	227
CCCNC(=O)CCC1CCCC1N[C@@H]1CC[C@@](C(=O)N2CCN(c3cc(C(F)(F)F)ccn3)CC2)(C(C)C)C1 (stereo partly drawn) [Example 17, 3-(2-{[(1R,3S)-3-isopropyl-3-({4-[4-(trifluoromethyl)pyridin-2-yl]piperazin-1-yl}carbonyl)cyclopentyl]amino}cyclopentyl)-N-propylpropanamide]	190

The next lines start with the values.

IC50 [nM]	Structure (SMILES)
51.7	CC(C)[C@]1(C(=O)N2CCN(c3cc(C(F)(F)F)ccn3)CC2)CC[C@@H](NC2CCc3cc(F)cc(F)c3C2)C1 (mixture of isomers) [Example 18, 6,8-difluoro-N-[(1R,3S)-3-isopropyl-3-({4-[4-(trifluoromethyl)pyridin-2-yl]piperazin-1-yl}carbonyl)cyclopentyl]-1234-tetrahydronaphthalen-2-amine]
138	CC(C)[C@]1(C(=O)N2CCN(c3cc(C(F)(F)F)ccn3)CC2)CC[C@@H](NC2CCc3ccccc3C2)C1 (mixture of isomers) [Example 19, N-[(1R,3S)-3-isopropyl-3-({4-[4-(trifluoromethyl)pyridin-2-yl]piperazin-1-yl}carbonyl)cyclopentyl]-1234-tetrahydronaphthalen-2-amine]
504	CC(CCn1cccn1)N[C@@H]1CC[C@@](C(=O)N2CCN(c3cc(C(F)(F)F)ccn3)CC2)(C(C)C)C1 (mixture of isomers) [Example 22, (1R,3S)-3-isopropyl-N-[1-methyl-3-(1H-pyrazol-1-yl)propyl]-3-({4-[4-(trifluoromethyl)pyridin-2-yl]piperazin-1-yl}carbonyl)cyclopentanamine]
157	CC(C)[C@]1(C(=O)N2CCN(c3cc(C(F)(F)F)ccn3)CC2)CC[C@@H](NC2CCOC2)C1 (mixture of isomers) [Example 23, N-[(1R-3S)-3-isopropyl-3-({4-[4-(trifluoromethyl)pyridin-2-yl]piperazin-1-yl}carbonyl)cyclopentyl]tetrahydrofuran-3-amine]
80.6	CC1OCCC1N[C@@H]1CC[C@@](C(=O)N2CCN(c3cc(C(F)(F)F)ccn3)CC2)(C(C)C)C1 (stereo partly drawn) [Example 20, 2,5-anhydro-1,3,4-trideoxy-3-{[(1R,3S)-3-isopropyl-3-({4-[4-(trifluoromethyl)pyridin-2-yl]piperazin-1-yl}carbonyl)cyclopentyl]amino}pentitol]
10.1	CC1COCC(C)C1N[C@@H]1CC[C@@](C(=O)N2CCN(c3cc(C(F)(F)F)ccn3)CC2)(C(C)C)C1 (stereo partly drawn) [Example 21, N-[(1R,3S)-3-isopropyl-3-({4-[4-(trifluoromethyl)pyridin-2-yl]piperazin-1-yl}carbonyl)cyclopentyl]-35-dimethyltetrahydro-2H-pyran-4-amine]
181	CC(C)[C@]1(C(=O)N2CCN(c3cc(C(F)(F)F)ccn3)CC2)CC[C@@H](N(C)C2CCOC2)C1 (stereo partly drawn) [Example 24, N-[(1R,3S)-3-isopropyl-3-({4-[4-(trifluoromethyl)pyridin-2-yl]piperazin-1-yl}carbonyl)cyclopentyl]—N-methyltetrahydrofuran-3-amine]
500	COc1ccc(CN[C@@H]2CC[C@@](C(=O)N3CCN(c4cc(C(F)(F)F)ccn4)CC3)(C(C)C)C2)cc1OC [Example 25, (1R,3S)-N-(34-dimethoxybenzyl)-3-isopropyl-3-({4-[4-(trifluoromethyl)pyridin-2-yl]piperazin-1-yl}carbonyl)cyclopentanamine]
273	CC(C)[C@]1(C(=O)N2CCN(c3cc(C(F)(F)F)ccn3)CC2)CC[C@@H](NCc2ccc3[nH]ccc3c2)C1 [Example 26, (1R,3S)-N-(1H-indol-5-ylmethyl)-3-isopropyl-3-({4-[4-(trifluoromethyl)pyridin-2-yl]piperazin-1-yl}carbonyl)cyclopentanamine]
470	CC(C)[C@]1(C(=O)N2CCN(c3cc(C(F)(F)F)ccn3)CC2)CC[C@@H](NCc2ccc(O)cc2)C1 [Example 27, 4-({[(1R,3S)-3-isopropyl-3-({4-[4-(trifluoromethyl)pyridin-2-yl]piperazin-1-yl}carbonyl)cyclopentyl]amino}methyl)phenol]
389	CC(C)[C@]1(C(=O)N2CCN(c3cc(C(F)(F)F)ccn3)CC2)CC[C@@H](NCc2ccc(F)cc2)C1 [Example 28, (1R,3S)-N-(4-fluorobenzyl)-3-isopropyl-3-({4-[4-(trifluoromethyl)pyridin-2-yl]piperazin-1-yl}carbonyl)cyclopentanamine]
